Data reported in article PMC4179164, “Ophiobolin A from Bipolaris oryzae Perturbs Motility and Membrane Integrities of Porcine Sperm and Induces Cell Death on Mammalian Somatic Cell Lines” (Toxins, 2014).
In brackets after ≈: the same amount, converted by molar mass. Where two headings read alike, the source gives them in different places.

Assays:
boar spermatozoa = assay: Sperm motility inhibition assay (progressive and rapid motility); assay type: cell-based
Experimental: Furthermore, their physiological characters including their motility are influenced mainly by membrane potentials and ion fluxes. Thus, the change of sperm motility is able to sensitively indicate the substances causing mitochondrial membrane depolarization even at sublethal doses, which is undetectable with other cell lines. Motility of the spermatozoa was judged after exposure of 30 min and 24 h at room temperature with minor modification of a previously described method.
The sperm motility inhibition assay was done as reported by Andersson et al.. Commercial boar semen obtained from Figen Oy Finland extended in MR-A (Kubus, S.A., Madrid, Spain) containing 27 × 10^6 spermatozoa·mL^−1 was used. The purified OPA was diluted by serial dilutions in methanol obtaining two ranges of concentrations with 4-4 levels from 2500 μg mL^−1 to 250.0 μg mL^−1 and from 50 μg mL^−1 to 5.0 μg mL^−1, for short and long time exposures, respectively. Twenty μL of each dilution was administered to 2 mL of MR-A-diluted boar semen resulting approximately 100 times dilution of the original stock solutions; 20 μL of methanol was added to spermatozoa in the same way as a blank assay. The samples were incubated for 30 min and 24 h at room temperature for short and long term exposure assays, respectively. After exposure, motility was induced in the sperm cells by incubation in 37 °C for 5 min and shaking to provide the sperm cells with oxygen. […]
The above described subjective motility assay was calibrated with an automatic Hamilton Thorne sperm motility analyzer (HTM-S, ver. 7.2; Hamilton-Thorn Research, Danvers, MA, USA). […] Thus the protocol for assessing sperm tail beating as a measure of motility inhibition gave 99% similarity to measurements of the proportion of rapidly motile spermatozoa done with Hamilton Thorne sperm analyzer (HTM-S, ver. 7.2; Hamilton-Thorn Research, Danvers, MA, USA) Toxicity was expressed as the endpoint concentration of the OPA solution, where the progressive and rapid motility of the sperm cells were <50% of the vehicle exposed sperm cells. […]

[1] = Somatic cell toxicity assay (resazurin reduction), PK-15; assay type: cell-based, porcine; conditions: pig, PK-15 cells (porcine kidney tubular epithelial cell line); read-out: Toxic endpoint EC50, Cytotoxicity, PK-15 cells
Experimental: (§1) Viability assays, based on resazurin-resorufin transformation, represent excellent correlation to generally used reference assays, such as formazan- and tritiated thymidine based methods. In our experiments, proliferating murine neuroblastoma (MNA), feline fetus lung (FFL) and porcine kidney (PK-15) cells were treated with OPA. […] These values were remarkably less than the concentrations causing sperm toxicity and motility inhibition.
(§2) Cytotoxicity against somatic cells was tested with feline fetus lung cells (FFL) cultivated as described by Andersson et al. and murine neuroblastoma cells (MNA) as described by Kulonen et al. as well as porcine kidney tubular epithelial cell line (PK-15), cultured as reported earlier. All somatic cell lines were maintained in an atmosphere of 95% air, 5% CO2 and 95% relative humidity at 37 °C on RPMI 1640 (complete medium) in a cell culture cabinet (Heracell 150i; Thermo Fisher Scientific, Vantaa, Finland). The detached cells were seeded onto 96 well microtiter plates and exposed to the purified OPA, the final concentration of which ranged from 48.8 ng mL^−1 to 25 μg mL^−1 containing 10 levels in methanol. […] Then, the plates were analyzed by a microtiter plate reader (Fluoroskan Ascent, Thermo Scientific, Vantaa, Finland) at the excitation and emission wavelengths of 544 nm and 590 nm, respectively. […]

[2] = test system: porcine kidney (PK-15) cells; assay: as above; assay type: cell-based; conditions: Sus scrofa; PK-15 cells, resazurin; read-out: IC50, cell proliferation
Experimental: as §1, §2

CC(C)=C[C@H]1C[C@H](C)[C@]2(CC[C@]3(C)C[C@H]4[C@H](C(=O)C[C@@]4(C)O)/C(C=O)=C\C[C@H]32)O1 [OPA, ophiobolin A]
EC50 (boar spermatozoa; 0.5 h, boar spermatozoa, 30 min exposure at room temperature, read-out: Toxic endpoint EC50, Motility inhibition (30 min)): ≤ 2.5 µg/mL | EC50 (boar spermatozoa; 24 h, read-out: Toxic endpoint EC50, Motility inhibition (24 h), boar spermatozoa, 24 h exposure at room temperature): 0.25 µg/mL (≈ 0.624 µM) | EC50 at 3 days [1]: 0.1 µg/mL (≈ 0.25 µM) | IC50 [2]: 0.0488 to 0.0976 µg/mL (≈ 0.122 to 0.244 µM)
